Values of other authors as cited in US20130071904A1, “ACETATE-RESISTANT YEAST STRAIN FOR THE PRODUCTION OF A FERMENTATION PRODUCT” (priority 2010, published 2013).

Test system: Saccharomyces cells
Settings: Pons et al. 1984

CC(=O)O [Acetate]
effect on growth of Saccharomyces cells: inhibits the growth
